Assay results reported in PubChem BioAssay AID179 (DTP/NCI, 2004).
The source made the active and inactive calls.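 How the source made its calls: active means compounds giving half or more protection of infected cells from virus-caused growth loss, again on retest; inactive means the rest.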 *1 amine or outer side, *2 acyl side, *3 side chain or, on linkers, in order; H or OH if unused. Where a SMILES comes first, the peptide text is derived from it. Bridges are numbered along the chain shown (N, C = ends). Roman numbers before positions name the chains, in order. [ ]: non-standard residue; d: D form. Actinocin(9to1) = Cc1c2oc3c(C)ccc(C(=O)[*:1])c3nc-2c(C(=O)[*:2])c(N)c1=O; aThr = C[C@H](O)[C@H](N)C(=O)O; NMeV = CN[C@H](C(=O)O)C(C)C; Sar = CNCC(=O)O

Tested on: CEM cells HIV-1 protection, formazan growth assay
Assay: NCI AIDS Antiviral Assay
Details: for IC50: measured here: growth of uninfected CEM cells
Method in brief: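 Protection of CEM cells against HIV-1 measured as cell growth via soluble formazan read-out, with five concentrations tested on both infected and uninfected cells; failure to protect may reflect toxicity.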

Row | Structure (SMILES) | EC50 [µM] | IC50 [µM] | outcome
1 | CCOC(=O)c1nc2ccc([N+](=O)[O-])cc2c2c1CCO2 | > 63.1 | > 63.1 | –
2 | NNc1ncnc2cccc(Cl)c12 | > 200 | > 200 | –
3 | CC1=C(Br)C(c2ccccc2)=Nc2ccccc2N1 | > 200 | 33.1 | –
4 | CC(C)=CC(=O)CC(=O)C(=O)Nc1ccc(Cl)c(Cl)c1 | > 417 | > 417 | –
5 | COc1ccc(C2=NNC(=O)C2(C)Br)cc1 (centres undefined) | > 200 | 42.7 | –
6 | CCOC(=O)CON=c1c2ccccc2ccc2ccccc12 | > 200 | > 200 | –
7 | O=[N+]([O-])C1=C(c2ccccc2)SC(Br)=C(c2ccccc2)S1 | > 100 | 0.813 | –
8 | N=C(N)Cn1cnc2ccccc21 | > 5500 | 4680 | –
9 | Cc1c2oc3c(C)ccc(C(=O)N[C@@H]4C(=O)N[C@H](C(C)C)C(=O)N5CCC[C@H]5C(=O)N(C)CC(=O)N(C)[C@@H](C(C)C)C(=O)O[C@H]4C)c3nc-2c(C(=O)N[C@@H]2C(=O)N[C@H](C(C)C)C(=O)N3CCC[C@H]3C(=O)N(C)CC(=O)N(C)[C@@H](C(C)C)C(=O)O[C@H]2C)c(N)c1=O (I: [aThr][dV]P[Sar][NMeV] / II: [aThr][dV]P[Sar][NMeV]; ester I:1-I:C, II:1-II:C; linker I:N-II:N via Actinocin(9to1)) | > 0.302 | 9.55e-05 | –
10 | CCCC1=NNc2n[nH]c(=S)n2N1 | > 132 | 58.9 | –
11 | O=C(OCCN1CCOCC1)c1cc2ccccc2oc1=O | > 741 | > 741 | –
12 | COc1cc(NC=C2C(=O)OC(C)(C)OC2=O)c(OC)c(C)c1OC | > 200 | > 200 | –
13 | CCOC(=O)C(=CNc1ccc(NC2=NCC(C)S2)cc1)C(=O)OCC (centres undefined) | > 200 | 3.24 | –
14 | O=Nc1c(-c2ccccc2)[nH]oc1=O | > 200 | 36.3 | –
15 | CC(=O)OCC1OC(NC(=S)Nn2c(=O)[nH]c3ccccc3c2=O)C(OC(C)=O)C(OC(C)=O)C1OC(C)=O (centres undefined) | > 200 | > 200 | –
16 | Cc1ccccc1N1OS(=O)(=O)CC1(C#N)c1ccccc1 (centres undefined) | > 83.2 | > 83.2 | –
17 | C=CCCC1CCCNC1=S (centres undefined) | > 776 | 708 | –
18 | CC(C1=CC=C2[C@@H]3CCC4CC(N(C)C)CC[C@]4(C)C3CC[C@]12C)N(C)C=O (some centres undefined) | > 35.5 | > 35.5 | –
19 | Cc1ccc(S(=O)(=O)CC2(Br)Cc3ccccc3C2=O)cc1 (centres undefined) | > 200 | 5.75 | –
20 | CCOC1(OCC)C([N+](=O)[O-])=CC(=[N+]([O-])O)C=C1[N+](=O)[O-] | > 724 | 204 | –
21 | COC(=O)CC1(CNC(=O)OCc2ccccc2)OCCO1 | > 200 | > 200 | –
22 | O=C(c1ccc(Cl)cc1)c1ccc(N=[N+]([O-])c2ccc(C(=O)c3ccc(Cl)cc3)cc2)cc1 | > 100 | > 100 | –

Row | Structure (SMILES) | EC50 [µM] | IC50 [µM] | outcome
23 | COC(=O)c1ccccc1C1CN=NC12Cc1ccc3c(c1C2=O)CCC3 (centres undefined) | > 200 | – | –
24 | O=c1[nH]c2cc(Cl)ccc2nc1/C(=N\O)C(O)c1ccc(Cl)cc1Cl (centres undefined) | > 74.1 | > 74.1 | –
25 | O=C1CC[C@@H](S(=O)(=O)c2ccccc2)[C@H](/C=C/c2ccccc2)O1 | – | – | inactive
26 | C1CSCCCSCCCSCCCSC1 | > 33.9 | > 33.9 | –
27 | O=C1N=C2C=CC=CN2CC1O (centres undefined) | > 200 | > 200 | –
28 | CC1(C)OC2C(CO)OC(/N=C(\NC#N)Oc3ccccc3)C2O1 (centres undefined) | > 200 | > 200 | –
29 | COc1ccc(-c2csc3c2[N+]2(C)C=CC=C2C3N2CCCC2)cc1 (centres undefined) | > 200 | 8.51 | –
30 | CCCCCCCCCCCCCOC(=O)CC(C(=O)OCCCCCCCCCCCCC)S(=O)(=O)O (centres undefined) | > 200 | 102 | –
31 | CN1c2ccccc2N(C(=O)c2ccc([N+](=O)[O-])cc2)C(CC(=O)O)c2cccn21 (centres undefined) | > 617 | 240 | –
32 | NNc1nncc2[nH]cnc12 | > 200 | > 200 | –
33 | CCOC(=O)N1N=NC2C3OC(C[C@@]3(C#N)OC(C)=O)[C@H]21 (some centres undefined) | – | – | inactive
34 | Cc1cc(C)nc(NS(=O)(=O)c2ccc(Nc3c4ccccc4nc4ccc(C(=O)Nc5ccc(S(N)(=O)=O)cc5)cc34)cc2)n1 | > 200 | 89.1 | –
35 | C=CCN1C(=O)CS/C1=N\NC(=O)CSc1nc2ccccc2c(=O)n1CC | > 200 | > 200 | –
36 | CSCCCS/C1=C/CCCCCCCCCC1 | > 200 | > 200 | –
37 | NNC(=O)C1C2c3ccccc3C(c3ccccc32)C1C(=O)O (centres undefined) | > 200 | > 200 | –
38 | CC(C)N1CSC(=S)N(Cc2ccccc2)C1 | > 37.2 | 32.4 | –
39 | Cn1c(O)c(N=NC(=S)NC(=O)C23CC4CC(CC(C4)C2)C3)c2ccccc21 | – | – | inactive
40 | O=C1OC(OC/C(Br)=C(\Br)COC2OC(=O)C(Cl)=C2Cl)C(Cl)=C1Cl (centres undefined) | > 200 | 3.09 | –
41 | C=C(C)COC1CCCCO1 (centres undefined) | > 200 | 38 | –
42 | CC1NC(=O)C2=C1C(N)=NC(=O)C2 (centres undefined) | > 1000 | > 1000 | –
43 | O=c1c2cccc3cccc(c4n1CCCN=4)c32 | > 200 | 17 | –
44 | O=c1c2c(F)c(F)c(F)c(F)c2sc2nccn12 | > 200 | 3.89 | –

Row | Structure (SMILES) | EC50 [µM] | IC50 [µM] | outcome
45 | O=C(O)CN1CCNCCN(CC(=O)O)CCN(CC(=O)O)CCNCC1 | > 200 | 178 | –
46 | N#CC(C#N)=C1/C(=C/C=C/C=C/C=C/c2ccc(N3CCCCC3)s2)S(=O)(=O)c2ccccc21 | > 200 | 93.3 | –
47 | COc1ccc(/C=C/c2nc3ccccc3nc2/C=C/c2ccc(OC)c(OC)c2)cc1OC | > 100 | > 100 | –
48 | N=c1oc2c(O)c(O)ccc2cc1C(N)=O | > 8.32 | > 8.32 | –
49 | O=C(O)c1ccccc1CC1Cc2ccccc2C1=O (centres undefined) | > 200 | > 200 | –
50 | Cc1c(S(=O)c2cc(C(C)(C)C)c(O)c(CN3CCCC3)c2C)cc(C(C)(C)C)c(O)c1CN1CCCC1 | > 200 | 13.5 | –
51 | COc1cc2c(cc1OC)C(=O)/C(=C/c1ccccc1)C2 | > 200 | 151 | –
52 | COc1c(Cl)cc(C(=CCC(=O)N[C@@H]2CC[C@@]3(C)[C@@H](CC[C@@H]4[C@@H]3CC[C@]3(C)[C@@H]([C@H](C)CCCC(C)C)CC[C@@H]43)C2)c2cc(Cl)c(OC)c(C(=O)O)c2)cc1C(=O)O | > 200 | 10.2 | –
53 | O=C(NCCN1CCCC1)c1cn2c(ccc3sc4ccccc4c(=O)c32)n1 | > 200 | 1.26 | –
54 | O=C(/C=C/c1ccc[nH]1)c1ccccc1 | > 347 | 120 | –
55 | O=C(O)C1CC2C=CCC(C2)C1 (centres undefined) | – | – | inactive
56 | COc1ccc(COCCOCc2nc(C#N)c(N)o2)cc1 | > 200 | 135 | –
57 | c1ccc2nc3c(nc2c1)[nH]c1ccccc13 | > 12.3 | > 12.3 | –
58 | O=C1NC(N2CCCC(CO)C2)=N/C1=C\c1ccc(O)cc1 (centres undefined) | > 200 | 115 | –
59 | Nc1c(Br)cc2c(c1Br)Cc1cc(Br)ccc1-2 | > 200 | > 200 | –
60 | CC(=O)[O-].[Ni].c1ccc(/C(=N\Nc2ccccn2)c2ccccn2)cc1 | – | – | inactive
61 | C1=CC2C=CC(C=C1)[PH+]2c1ccccc1.[C-]#[O+].[C-]#[O+].[C-]#[O+].[C-]#[O+].[C-]#[O+].[Cr] (centres undefined) | > 6.76 | > 6.76 | –
62 | O=C(/C=C/c1ccc(OCC(=O)N2CCN(c3ccccc3)CC2)cc1)c1ccccc1 | > 23.4 | > 23.4 | –
63 | O=c1cn[nH]c2ccc(F)cc12 | > 219 | > 219 | –
64 | C=C1CN(S(=O)(=O)c2ccc(C)cc2)CCCN(Cc2ccc(C)o2)CCCN(S(=O)(=O)c2ccc(C)cc2)C1 | > 200 | > 200 | –
65 | O=C1NC(=O)C(=Cc2ccc(F)cc2)C(=O)N1 | > 112 | > 112 | –
66 | O=C(NCCc1c(-c2ccccc2)[nH]c2ccccc12)C1CCCCC1 | > 200 | 15.8 | –

Row | Structure (SMILES) | EC50 [µM] | IC50 [µM] | outcome
67 | C/C(=N/N)c1ccc2[nH]c3c(C)cc([N+](=O)[O-])c(C)c3c2c1 | > 24.5 | 4.9 | –
68 | CN1C(=O)C2C=C3CCCCC3=CC2N(C)C1=O (centres undefined) | > 200 | > 200 | –
69 | O=[N+]([O-])c1cc(S(=O)(=O)c2ccc(O)c([N+](=O)[O-])c2)ccc1O | > 200 | > 100 | –
70 | COC(=O)C(C)(C)[C@@H]1OC(=O)N(S(=O)(=O)c2c(C)cc(C)cc2C)[C@H]1C(C)C | > 200 | 50.1 | –
71 | NCc1c(C(N)=O)ncn1Cc1ccccc1 | – | – | inactive
72 | S=C1C(=Nc2ccccc2)N(C2CCCCC2)C(=NC2CCCCC2)N1c1ccccc1 | > 200 | 141 | –
73 | C=C(CCC(Cl)C(COC)OC(CCC)OCC)[Si](C)(C)C (centres undefined) | > 38.9 | > 38.9 | –
74 | N#C/C(=C\c1cc(O)c(O)c(O)c1)C(=O)NCCCCNC(=O)/C(C#N)=C/c1cc(O)c(O)c(O)c1 | > 200 | 61.7 | –
75 | CCSCCCN(CCCSCC)CCCSCC | > 155 | > 155 | –
76 | CCC12CCC3CCCCC3(OO1)[C@@H](OC)O2 (some centres undefined) | > 51.3 | > 51.3 | –
77 | O=C(/N=C/c1c(O)c2ccccc2oc1=O)NC1CCCCC1 | > 41.7 | > 41.7 | –
78 | Cc1cc(N(CCC#N)CCC#N)ccc1C=Nc1ccc(C(=O)NN2C(=O)/C(=C/c3ccc(N(CCC#N)CCC#N)cc3)N=C2c2cc([N+](=O)[O-])ccc2Cl)cc1 | > 44.7 | > 44.7 | –
79 | NC1=NC(=O)CS1 | > 2140 | > 2140 | –
80 | N#C/C(=C\c1c(Cl)cccc1Cl)c1ccc([N+](=O)[O-])cc1 | > 200 | > 200 | –
81 | CC1=NN(c2ccccc2)C(=O)C1N=Nc1ccc(S(=O)(=O)Nc2nnc(C)s2)cc1 (centres undefined) | – | – | inactive
82 | CC1(C)CCc2cc3c(cc2O1)OCC1c2cc4c(cc2OC31)OCO4 (centres undefined) | – | – | inactive
83 | CC1CCC23COC(=O)C2=CCCC3C1(C)CC/C(=C/CO)CO (centres undefined) | – | – | inactive
84 | CC(C)N=C(NC#N)NS(=O)(=O)c1cnccc1Nc1ccc(Cl)cc1 | > 200 | > 200 | –
85 | CC(C)(C)c1n[nH]c(C(C)(C)C)c1N=O | > 200 | 97.7 | –
86 | CCOC(=O)/C(=C/c1ccccc1)C(=O)c1ccccc1 | > 25.7 | 20 | –
87 | O=C(O)c1cc(Br)cc(SSc2cc(Br)cc(C(=O)O)c2O)c1O | 102 | 107 | –
